Conditions: 101.33 kPa, Liquid, Vibrating tube method

C1CCCNCC1 [azacycloheptane]
Conditions | mass density [kg/m3]
273.16 K | 898.81
273.66 K | 898.36
274.16 K | 897.92
274.66 K | 897.48
275.16 K | 897.04
275.66 K | 896.6
276.16 K | 896.16
276.66 K | 895.72
277.16 K | 895.28
277.66 K | 894.84
278.16 K | 894.4
278.66 K | 893.96
279.16 K | 893.51
279.66 K | 893.07
280.16 K | 892.63
280.66 K | 892.19
281.16 K | 891.75
281.66 K | 891.31
282.16 K | 890.87
282.66 K | 890.42
283.16 K | 889.98
283.66 K | 889.54
284.16 K | 889.1
284.66 K | 888.66
285.15 K | 888.22
285.66 K | 887.77
286.16 K | 887.33
286.66 K | 886.89
287.16 K | 886.45
287.66 K | 886
288.16 K | 885.56
288.66 K | 885.12
289.16 K | 884.68
289.66 K | 884.23
290.16 K | 883.79
290.66 K | 883.35
291.15 K | 882.91
291.65 K | 882.47
292.16 K | 882.03
292.65 K | 881.58
293.15 K | 881.15
293.65 K | 880.71
294.15 K | 880.26
294.65 K | 879.82
295.15 K | 879.38
295.65 K | 878.94
319.15 K | 858.06
319.65 K | 857.61
320.15 K | 857.17
320.65 K | 856.72
321.15 K | 856.28
321.65 K | 855.83
322.15 K | 855.39
322.65 K | 854.94
323.15 K | 854.49
323.65 K | 854.05
324.15 K | 853.6
324.65 K | 853.15
325.15 K | 852.71
325.66 K | 852.26
326.16 K | 851.81
326.66 K | 851.37
327.15 K | 850.92
327.66 K | 850.47
328.16 K | 850.03
328.66 K | 849.58
329.16 K | 849.13
329.66 K | 848.69
330.16 K | 848.24
330.65 K | 847.79
331.16 K | 847.35
331.66 K | 846.9
332.15 K | 846.45
332.66 K | 846
333.16 K | 845.55
333.65 K | 845.11
334.16 K | 844.66
334.65 K | 844.21
335.16 K | 843.76
335.65 K | 843.31
336.16 K | 842.86
336.66 K | 842.42
337.16 K | 841.96
337.66 K | 841.52
338.16 K | 841.07
338.66 K | 840.62
339.16 K | 840.17
339.66 K | 839.72
340.16 K | 839.27
340.66 K | 838.82
341.16 K | 838.37
341.65 K | 837.92

Reference: the NIST ThermoML archive (doi:10.1016/j.tca.2008.12.007)
